Measurements reported in patent US9556135B2, “Amino-dihydrothiazine and amino-dioxido dihydrothiazine compounds as beta-secretase antagonists and methods of use” (Amgen Inc., priority 2012, dated 2017).

Columns and labels:
Aβ in lumbar CSF = conditions: after oral dosing of 30 or 90 mg, healthy volunteers; cited from earlier work
[1] = tested on: pigment epithelium of the rat's eye; conditions: higher compound dose given for three months; cited from earlier work
[2] = biological target: Beta Secretase enzyme (BACE1) (Homo sapiens (Human), UniProt P56817); assay: In vitro enzymatic BACE FRET assay; type: biochemical
Chain of Beta Secretase enzyme (BACE1) (P56817 46-501): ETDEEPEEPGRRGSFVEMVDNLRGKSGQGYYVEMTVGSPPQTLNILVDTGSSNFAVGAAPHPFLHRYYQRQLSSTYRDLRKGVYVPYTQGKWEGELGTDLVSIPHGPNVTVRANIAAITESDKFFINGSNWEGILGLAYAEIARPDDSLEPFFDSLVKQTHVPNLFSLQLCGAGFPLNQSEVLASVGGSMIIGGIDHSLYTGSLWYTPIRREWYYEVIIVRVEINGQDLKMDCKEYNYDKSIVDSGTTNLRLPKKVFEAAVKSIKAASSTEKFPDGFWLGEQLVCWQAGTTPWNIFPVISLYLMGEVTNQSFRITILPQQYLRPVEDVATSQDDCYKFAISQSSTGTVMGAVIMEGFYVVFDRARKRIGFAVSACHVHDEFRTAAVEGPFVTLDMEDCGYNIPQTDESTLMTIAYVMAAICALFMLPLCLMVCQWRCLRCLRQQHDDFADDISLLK
Protocol: In Vitro Enzymatic BACE FRET (Fluorescence Resonance Energy Transfer) Assay (Enzyme Assay Data in the Example Tables I and II)
The assay buffer used in this screen is 0.05 M acetate, pH 4.2, 10% DMSO final, 100 uM genapol (which is a nonionic detergent, below its Critical Micelle Concentration). […] This assay is effectively started by the addition of FRET substrate (50 nM) and the combination is incubated for one hour. The FRET assay is terminated with by addition of Tris buffer, which raises the pH to neutrality, and the fluorescence is determined. The FRET substrate is a peptide with commercially available fluorophore and quencher, on opposite sides of the BACE cleavage site. Proteolytic cleavage of the FRET substrate releases quenching of fluorescence (excitation […] and […]).

Cathepsin D (Cat D) = Cathepsin D (Cat D) (Homo sapiens (Human), UniProt P07339); assay: In vitro enzymatic Cathepsin D (Cat D) FRET assay; type: biochemical; conditions: read-out: CatD IC50
Chain of Cathepsin D (Cat D) (P07339 65-412, species assumed): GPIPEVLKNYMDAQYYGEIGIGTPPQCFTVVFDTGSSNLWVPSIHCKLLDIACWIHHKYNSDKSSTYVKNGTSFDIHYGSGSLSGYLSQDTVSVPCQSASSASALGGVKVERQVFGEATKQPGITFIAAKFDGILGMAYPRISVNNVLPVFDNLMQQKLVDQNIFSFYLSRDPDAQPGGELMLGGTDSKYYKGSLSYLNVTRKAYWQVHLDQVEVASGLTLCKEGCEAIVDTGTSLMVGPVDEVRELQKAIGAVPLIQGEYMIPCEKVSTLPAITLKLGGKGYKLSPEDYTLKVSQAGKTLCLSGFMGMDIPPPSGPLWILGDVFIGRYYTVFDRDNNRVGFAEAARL
Protocol: In Vitro Enzymatic Cathepsin D (Cat D) FRET (Fluorescence Resonance Energy Transfer) Assay Recombinant Cat D was expressed in CHO cells. […] The Cat D enzyme (9 nM) is pre-incubated for one hour with inhibitors, typically in about 1 uL of DMSO according to a serial dilution, is added thereto. […] The FRET assay is terminated with by addition of Tris buffer, which raises the pH to neutrality, and the fluorescence is determined. The FRET substrate is a peptide with commercially available fluorophore and quencher, on opposite sides of the BACE cleavage site. The Cat D substrate peptide sequence is based on sequence #1 of Table 1 from Gulnik et al. […] Where available, the in-vitro Cat D FRET assay data for each of the Examples, conducted by the first procedure, is provided.

[3] = tested on: Aβ40 in conditioned medium of cells stably expressing Amyloid Precursor Protein (APP); assay: In vitro BACE cell-based assay (HEK cell assay), Aβ40 sandwich ELISA
Protocol: In Vitro BACE Cell-Based Assay
The cell-based assay measures inhibition or reduction of Aβ40 in conditioned medium of test compound treated cells expressing amyloid precursor protein.
Cells stably expressing Amyloid Precursor Protein (APP) were plated at a density of 40K cells/well in 96 well plates (Costar). The cells were cultivated for 24 hours at 37° C. and 5% CO2 in DMEM supplemented with 10% FBS. The test compounds were then added to cells in 10-point dose response concentrations with the starting concentration being either 100 μM or 10 μM. The compounds were diluted from stock solutions in DMSO and the final DMSO concentration of the test compounds on cells was 0.1%. After 24 h of incubation with the test compounds the supernatant conditioned media was collected and the Aβ 40 levels were determined using a sandwich ELISA. The IC50 of the compound was calculated from the percent of control or percent inhibition of Aβ 40 as a function of the concentration of the test compound.
The sandwich ELISA to detect Aβ 40 was performed in 96 well microtiter plates, which were pre-treated with goat anti-rabbit IgG (Pierce). The capture and detecting antibody pair that were used to detect Aβ 40 from cell supernatants were affinity purified pAb40 (Biosource) and biotinylated 6E10 (Signet Labs Inc.), respectively. The optimal concentration for the pAb40 antibody was 3 μg/ml in Superblock/TBS (Pierce) that was supplemented with 0.05% Tween 20 (Sigma).
Cellular supernatants were incubated with the capture antibody for 3 h at 4° C., followed by 3 wash steps in TBS-tween (0.05%). The detecting antibody incubation was for 2 h at 4° C., again followed by the wash steps as described previously. The final readout of the ELISA is Time-Resolved Fluorescence (counts per minute) using Delfia reagents Streptavidin-Europium and Enhancement solutions (Perkin Elmer) and the Victor 2 multilabel counter (Perkin Elmer).

| Compound | IC50 (Cathepsin D (Cat D)) [nM] | IC50 ([2]; average IC50) [nM] | IC50 ([3]; average IC50) [nM] | other results |
| --- | --- | --- | --- | --- |
| C[C@@]1(c2cc(-c3cncnc3)c(F)cc2F)CCSC(N)=N1 [LY2811376, (S)-4-(2,4-difluoro-5-pyrimidin-5-yl-phenyl)-4-methyl-5,6-dihydro-4H-[1,3]thiazin-2-ylamine] | – | – | – | Aβ reductions in lumbar CSF (Aβ in lumbar CSF): Prominent and long-lasting Aβ reductions in lumbar CSF |
| C[C@@]1(c2cc(-c3cncnc3)c(F)cc2F)CCSC(N)=N1 [LY 2811376] | – | – | – | rat toxicology finding [1]: damaged the pigment epithelium of the rat's eye |
| N-(3-((4aR,7aS)-3-amino-2,2-dimethyl-1,1-dioxido-7,7a-dihydro-2H-furo[3,4-b][1,4]thiazin-4a(5H)-yl)-4-fluorophenyl)-5-methoxy-3-methyl-2-pyridinecarboxamide,N-(3-((4aS,7aR)-3-amino-2,2-dimethyl-1,1-dioxido-7,7a-dihydro-2H-furo[3,4-13][1,4]thiazin-4a(5H)-yl)-4-fluorophenyl)-5-methoxy-3-methyl-2-pyridinecarboxamide [Example 428] | 309000 | – | – | IC50 ([2]; average IC50, enzyme assay): 9.71 nM; IC50 ([3]; average IC50, cell assay): 37.3 nM |
| N-(3-((7R)-9-amino-7-(fluoromethyl)-5,5-dioxido-5-thia-8-azaspiro[3.5]non-8-en-7-yl)-4-fluorophenyl)-3-chloro-1,7-naphthyridin-8-amine,N-(3-((7S)-9-amino-7-(fluoromethyl)-5,5-dioxido-5-thia-8-azaspiro[3.5]non-8-en-7-yl)-4-fluorophenyl)-3-chloro-1,7-naphthyridin-8-amine [Example 243] | 363000 | 1.31 | 77.9 | – |
| N-(3-((7R)-9-amino-7-(fluoromethyl)-5,5-dioxido-5-thia-8-azaspiro[3.5]non-8-en-7-yl)-4-fluorophenyl)-5-(difluoromethoxy)-3-methyl-2-pyridinecarboxamide,N-(3-((7S)-9-amino-7-(fluoromethyl)-5,5-dioxido-5-thia-8-azaspiro[3.5]non-8-en-7-yl)-4-fluorophenyl)-5-(difluoromethoxy)-3-methyl-2-pyridinecarboxamide [Example 410] | 170000 | 2.3 | 11.9 | – |
